{"source": "patent US20220331492A1", "about": "“COMPOSITION AND METHOD FOR CONTROLLED DRUG RELEASE FROM A TISSUE” (Bard Shannon Limited, priority 2017, published 2022)", "key": {"[1]": {"assay": "In vitro drug release from antibiotic-encapsulated PLGA microparticles", "format": "physicochemical", "conditions": "drug encapsulated in free PLGA (50:50) microparticles; buffer, 37° C., 120 rpm", "method": "The amount of antibiotic was determined by dissolving 20 mg beads in 1 mL NaOH 1 M at 37° C. After complete dissolution, 1 mL of HCl 1 M was added to neutralize the pH. […] A mixture of NaOH 1 M and HCl 1 M (1:1) was used as a blank.\nThe gentamicin concentration was determined by a colormetric assay: 0.5 mL of the gentamicin solution was mixed with 0.35 mL of sodium phosphate buffer (50 mM, pH 7.4) and 0.15 mL of 1.25% ninhydrin solution. The reaction occurred at 95° C. for 15 minutes and the tubes were then cooled in an ice-water bath for 10 min. The UV-visible spectra over the wavelength range of 200-700 nm were measured using the mixture of ninhydrin and the respective buffer solution at the appropriate concentrations as the blanks. The gentamicin concentration was calculated at the maximal absorbance (λmax˜315 nm).\nThe microspheres (25 mg of ciprofloxacin-encapsulated PLGA beads, 80 mg of gentamicin encapsulated PLGA beads, 40 mg of vancomycin-encapsulated PLGA beads) were placed into glass vials filled with 10 mL solution (PBS for vancomycin and ciprofloxacin-encapsulated PLGA beads and sodium phosphate buffer for gentamicin encapsulated PLGA beads). The vials were placed in an orbital shaker incubator at 37° C., where they were shaken at 120 rpm. […] Finally, the 1.5 mL of suspension were returned back into the glass vials. For gentamicin, the reaction with ninhydrin is irreversible. 0.5 ml, of the solution was replaced each day with fresh sodium phosphate buffer to maintain a constant volume."}, "[2]": {"assay": "Release of ciprofloxacin from PLGA microparticles embedded in enzymatically crosslinked gelatin matrix", "format": "physicochemical", "method": "Entrapment of microparticles in enzymatically crosslinked gelatin hydrogel was performed as follows.\nThis solution was mixed with 5.0 gr of gelatin solution. 0.25 gr of the mixture was cast in a glass vial, and curing occurred at 37° C. for 15 min. 5 mL of PBS was added to the vial to wash the gel. An additional 5 mL of PBS was added and the vial was placed in an orbital shaker incubator at 37° C. where it was shaken at 120 rpm. Once a day, 1.5 mL of the cured gel extract was centrifuged and 1 mL of the supernatant was taken to spectrophotometer to measure the drug concentration. After measurement, the 1.5 mL extract was returned back into the glass vials, crosslinked gelatin without beads was casted according to the same procedure and the extract was used as blank."}, "[3]": {"test_system": "Bacillus subtilis (ATCC 6633)", "assay": "Agar disk-diffusion (Kirby-Bauer) assay of crosslinked gelatin discs containing antibiotic PLGA beads", "format": "cell-based", "conditions": "crosslinked gelatin hydrogel containing drug-loaded PLGA MPs; gels incubated in saline for 14 days", "method": "(§1) The bacteria used was Bacillus subtilis, which serves as a model microorganism for gram positive bacteria.\n3 discs of 0.2 gr crosslinked gelatin containing 2% vancomycin-gentamicin-encapsulated PLGA beads were casted as previously reported 3 additional discs without beads were also casted and used as negative control. Filters containing 30 μg antibiotics (gentamicin or vancomycin) were used as positive controls.\nThe gel discs with and without beads and the filter containing antibiotics were placed in LB agar plates on which 100 μl of bacterium suspension had been evenly spread. The petri dishes were placed in an orbital shaker incubator at 37° C. where a horizontal shake was performed at 120 rpm."}, "[4]": {"test_system": "Bacillus subtilis (ATCC 6633)", "assay": "Microdilution assay of hydrogel disc extracts versus MIC", "format": "cell-based", "conditions": "extracts of crosslinked gelatin hydrogel containing 2% drug-loaded PLGA beads; throughout the study (1-14 days)", "method": "as §1\n6 discs of 0.2 gr crosslinked gelatin containing 2% vancomycin/gentamicin-encapsulated PLGA beads were casted in plastic mold of 12 mm diameter. After […] of curing at 37° C., the gels were separately placed in glass vial filled with 1.5 mL sodium phosphate buffer. The vials were placed in an incubator at 37° C. After 1, 2, 4, 7, 11 and 14 days, the gel was taken out and the hydrogel extract was frozen until test.\nThe antibacterial activity of the hydrogel discs extracts was studied by employing a microdilution method (FIG. 3b). Plates were prepared under sterile conditions. 100 μL of test materials were pipetted into the first column of the sterile 96-well plate. To all other wells 50 μL of saline was added. Serial dilutions were performed using a multichannel pipette. Tips were discarded after use such that each well had 50 μL of the test material in serially descending concentrations. […]\nAfter 24 hours, the OD of each well was measured at 600 nm to determinate the presence or absence of bacterium. The lowest concentration at which […] was taken as the MIC value."}, "[5]": {"conditions": "cited from earlier work"}, "[6]": {"conditions": "mixed with fibrin glue; cited from earlier work"}}}
{"compound": "O=C(O)c1cn(C2CC2)c2cc(N3CCNCC3)c(F)cc2c1=O", "note": "[ciprofloxacin]", "values": [{"measurement": "release kinetics after initial burst release", "setting": "[1]", "result": "zero order kinetics"}, {"measurement": "time over which the drug eluted", "setting": "[2]; PLGA MPs embedded in in situ cross-linkable gelatin matrix", "result": 2, "unit": "weeks"}, {"measurement": "release rate of MPs embedded in gelatin matrix compared to free MPs", "setting": "[2]; PLGA MPs embedded in in situ enzymatically crosslinked gelatin, PBS, 37° C.", "result": "somewhat slower"}]}
{"compound": "gentamycin", "values": [{"measurement": "release kinetics after initial burst release", "setting": "[1]", "result": "zero order kinetics"}, {"measurement": "bacteria killing (ring around the gel) in agar diffusion assay", "setting": "[3]", "result": "still had enough drug remaining within the matrix to induce bacteria killing"}, {"measurement": "concentration of the eluted antibiotic drug relative to MIC", "setting": "[4]", "result": "considerably above MIC"}]}
{"compound": "CCOC(=O)c1ccc(N)cc1", "note": "[Benzocaine]", "values": [{"measurement": "water solubility", "setting": "[5]", "result": "very low"}]}
{"compound": "Cc1nnc(SCC2=C(C(=O)O)N3C(=O)[C@@H](NC(=O)Cn4cnnn4)[C@H]3SC2)s1", "note": "[cefazolin]", "values": [{"measurement": "release time", "setting": "[6]", "result": 2, "unit": "days"}]}
{"compound": "CN[C@H](CC(C)C)C(=O)N[C@H]1C(=O)N[C@@H](CC(N)=O)C(=O)N[C@H]2C(=O)N[C@H]3C(=O)N[C@H](C(=O)N[C@H](C(=O)O)c4cc(O)cc(O)c4-c4cc3ccc4O)[C@H](O)c3ccc(c(Cl)c3)Oc3cc2cc(c3O[C@@H]2O[C@H](CO)[C@@H](O)[C@H](O)[C@H]2O[C@H]2C[C@](C)(N)[C@H](O)[C@H](C)O2)Oc2ccc(cc2Cl)[C@H]1O", "note": "[vancomycin]", "values": [{"measurement": "release kinetics after initial burst release", "setting": "[1]", "result": "zero order kinetics"}, {"measurement": "bacteria killing (ring around the gel) in agar diffusion assay", "setting": "[3]", "result": "still had enough drug remaining within the matrix to induce bacteria killing"}, {"measurement": "concentration of the eluted antibiotic drug relative to MIC", "setting": "[4]", "result": "considerably above MIC"}]}
